Measurements as given in article PMC7016291 (Acta Pharmaceutica Sinica. B, 2019).
Several values for one entry are separate records, joined by “and”; a condition that tells them apart may be missing. Equal values may be shown once. Read-outs that look alike come from different tables or passages of the source.

Tests used:
HIV-2 (ROD) = experiment: Anti-HIV activity in MT-4 cells; type: cell-based
MT-4 cells = experiment: Cytotoxicity in uninfected MT-4 cells; type: cell-based; conditions: uninfected MT-4 cell viability reduced by 50%
HIV-1 RT RNase H = HIV-1 RT RNase H (Human immunodeficiency virus type 1 group M subtype B, UniProt P03366); experiment: HIV-1 RT RNase H inhibition; type: biochemical; conditions: for RNase H IC50: mean of four separate experiments
WT HIV-1 RT = WT HIV-1 RT (Human immunodeficiency virus type 1 group M subtype B, UniProt P03366); experiment: HIV-1 RT inhibition assay; type: biochemical; conditions: for RT IC50: WT HIV-1 RT, mean of at least two separate experiments
[1] = Kinetic aqueous solubility; conditions: kinetic from dmso stock
[2] = system: HIV-1 RES056 (K103N/Y181C); experiment: Anti-HIV-1 activity against double mutant RES056 in MT-4 cells; type: cell-based; conditions: Human immunodeficiency virus 1, MT4, read-out: EC50 RES056
HIV-1 Y188L = experiment: Anti-HIV-1 activity against mutant strain Y188L in MT-4 cells; type: cell-based; conditions: Human immunodeficiency virus 1, MT4, read-out: EC50 Y188L
HIV-1 F227L + V106A = experiment: Anti-HIV-1 activity against double mutant F227L + V106A in MT-4 cells; type: cell-based; conditions: Human immunodeficiency virus 1, MT4, read-out: EC50 F227L + V106A
HIV-1 E138K = experiment: Anti-HIV-1 activity against mutant strain E138K in MT-4 cells; type: cell-based; conditions: Human immunodeficiency virus 1, MT4, read-out: EC50 E138K
[3] = Cytotoxicity in uninfected MT-4 cells; type: cell-based; conditions: human, uninfected MT-4 cells
HIV-1 Y181C = experiment: Anti-HIV-1 activity against mutant strain Y181C in MT-4 cells; type: cell-based; conditions: Human immunodeficiency virus 1, MT4, read-out: EC50 Y181C
HIV-1 L100I = experiment: Anti-HIV-1 activity against mutant strain L100I in MT-4 cells; type: cell-based; conditions: Human immunodeficiency virus 1, MT4, read-out: EC50 L100I
HIV-1 K103N = experiment: Anti-HIV-1 activity against mutant strain K103N in MT-4 cells; type: cell-based; conditions: Human immunodeficiency virus 1, MT4, read-out: EC50 K103N
[4] = read-out: EC50 ROD, MT-4 cells, HIV-2 strain ROD
[5] = aqueous solution at pH 2.0, pH 2, aqueous buffer
[6] = aqueous solution at pH 7.0, pH 7, aqueous buffer
[7] = aqueous solution at pH 7.4, pH 7.4, aqueous buffer
[8] = Human immunodeficiency virus 2, MT4, read-out: EC50 ROD

SMILES | EC50 (HIV-2 (ROD); [4]) [µM] | CC50 (MT-4 cells) [µM] | RNase H IC50 (HIV-1 RT RNase H) [µg/mL] | RT IC50 (WT HIV-1 RT) [µg/mL] | solubility kinetic ([1]; FaSSIF) | solubility kinetic [1, 5] | solubility kinetic [1, 6] | solubility kinetic [1, 7] | EC50 [2] [µM] | EC50 (HIV-1 Y188L) [µM] | EC50 (HIV-2 (ROD); [8]) [µM] | EC50 (HIV-1 F227L + V106A) [µM] | EC50 (HIV-1 E138K) [µM] | CC50 at 4 days [3] [µM] | IC50 (HIV-1 RT RNase H) [µM] | activity against RNase H (HIV-1 RT RNase H) | IC50 (WT HIV-1 RT) [µM] | EC50 (HIV-1 Y181C) [µM] | EC50 (HIV-1 L100I) [µM] | EC50 (HIV-1 K103N) [µM]
COC(=O)CNc1nc(Nc2ccc(C#N)cc2)nc(Oc2c(C)cc(-c3ccc(C#N)cc3)cc2C)n1 [Compound 5a, Methyl (4-((4ʹ-cyano-3,5-dimethyl-[1,1ʹ-biphenyl]-4-yl)oxy)-6-((4-cyanophenyl)-amino)-1,3,5-triazin-2-yl) glycinate] | 0.56 ± 0.14 | > 125 | >600 | 0.047 ± 0.003 | – | – | – | – | – | – | – | – | – | – | – | – | – | – | – | –
Cc1cc(-c2ccc(C#N)cc2)cc(C)c1Oc1nc(Nc2ccc(C#N)cc2)nc(N2CCC(O)C2)n1 (stereo not drawn) [Compound 5h, 4ʹ-((4-((4-Cyanophenyl)amino)-6-(3-hydroxypyrrolidin-1-yl)-1,3,5-triazin-2-yl)-oxy)-3ʹ,5ʹ-dimethyl-[1,1ʹ-biphenyl]-4-carbonitrile] | – | – | – | – | 14.7 µg/mL and 29.2 µM | 3.45 µg/mL and 6.85 µM | < 0.786 µg/mL and < 1.56 µM | < 0.786 µg/mL and < 1.56 µM | 0.19 ± 0.05 | 0.023 ± 0.006 | 2.91 ± 0.98 | 0.93 ± 0.11 | 0.0065 ± 0.0006 | 5.72 ± 0.08 | > 828 | slight activity | 0.161 | 0.0092 ± 0.0008 | 0.0082 ± 0.0022 | 0.0036 ± 0.0009
COC(=O)CNc1nc(Nc2ccc(C#N)cc2)nc(Nc2c(C)cc(-c3ccc(C#N)cc3)cc2C)n1 [Compound 6b, Methyl (4-((4ʹ-cyano-3,5-dimethyl-[1,1ʹ-biphenyl]-4-yl)amino)-6-((4-cyanophenyl)amino)-1,3,5-triazin-2-yl) glycinate] | 21.5 | > 125 | >600 | 0.033 ± 0.004 | – | – | – | – | – | – | – | – | – | – | – | – | – | – | – | –
Cc1cc(-c2ccc(C#N)cc2)cc(C)c1Nc1nc(NCC2CCOC2)nc(Nc2ccc(C#N)cc2)n1 (stereo not drawn) [Compound 6e, 4ʹ-((4-((4-Cyanophenyl)amino)-6-(((tetrahydrofuran-3-yl)methyl)amino)-1,3,5-triazin-2-yl)amino)-3ʹ,5ʹ-dimethyl-[1,1ʹ-biphenyl]-4-carbonitrile] | – | – | – | – | 60.5 µg/mL and 117 µM | 12.1 µg/mL and 23.4 µM | < 0.806 µg/mL and < 1.56 µM | < 0.806 µg/mL and < 1.56 µM | 0.06 ± 0.007 | 0.05 ± 0.008 | 7.91 ± 5.7 | ≥ 16.4 | 0.0053 ± 0.0033 | > 125 | > 1160 | – | 0.106 | 0.011 ± 0.001 | 0.022 ± 0.006 | 0.0034 ± 0.0005
Cc1cc(-c2ccc(C#N)cc2)cc(C)c1Nc1nc(Nc2ccc(C#N)cc2)nc(N2CCN(C)CC2)n1 [Compound 6i, 4ʹ-((4-((4-Cyanophenyl)amino)-6-(4-methylpiperazin-1-yl)-1,3,5-triazin-2-yl)amino)-3ʹ,5ʹ-dimethyl-[1,1ʹ-biphenyl]-4-carbonitrile] | – | – | – | – | 60.6 µg/mL and 117 µM | 77.3 µg/mL and 150 µM | < 0.804 µg/mL and < 1.56 µM | < 0.804 µg/mL and < 1.56 µM | 0.35 ± 0.08 | 0.067 ± 0.016 | > 3.69 | ≥ 3.69 | 0.01 ± 0.002 | 3.69 ± 2.98 | > 1160 | – | 0.227 | 0.017 ± 0.005 | 0.029 | 0.0074 ± 0.0021
